Laboratory results published in ChEMBL document CHEMBL1132823, “Fatty acid amide hydrolase substrate specificity” (Bioorg Med Chem Lett, 2000).

What follows are compounds tested against T1, Fatty-acid amide hydrolase 1 (Rattus norvegicus) (UniProt P97612) (assay: Relative rate of fatty acid amide hydrolase hydrolysis of compound compared to that of oleamide.).
T1 sequence (whole entry): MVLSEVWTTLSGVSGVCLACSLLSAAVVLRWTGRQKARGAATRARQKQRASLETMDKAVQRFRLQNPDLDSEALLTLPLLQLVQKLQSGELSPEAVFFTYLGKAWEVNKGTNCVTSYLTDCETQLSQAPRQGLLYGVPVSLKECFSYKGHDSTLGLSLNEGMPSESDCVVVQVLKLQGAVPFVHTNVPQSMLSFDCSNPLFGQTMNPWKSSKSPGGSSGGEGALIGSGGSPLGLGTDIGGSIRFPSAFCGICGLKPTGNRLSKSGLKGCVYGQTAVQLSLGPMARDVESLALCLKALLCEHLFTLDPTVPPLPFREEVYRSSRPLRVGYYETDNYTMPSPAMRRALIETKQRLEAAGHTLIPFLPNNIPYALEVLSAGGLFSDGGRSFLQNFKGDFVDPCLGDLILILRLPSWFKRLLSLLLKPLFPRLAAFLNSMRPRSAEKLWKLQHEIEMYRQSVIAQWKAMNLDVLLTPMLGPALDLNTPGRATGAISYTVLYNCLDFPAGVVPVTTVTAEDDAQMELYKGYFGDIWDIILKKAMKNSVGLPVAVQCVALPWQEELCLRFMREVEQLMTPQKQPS

Structure (SMILES) | Relative rate of hydrolysis
CCCCCCCCCCCCCCCCCC(N)=O | 0.69
CCCCCCCC/C=C/CCCCCCC(C)(C)C(N)=O | 0.03
CCCCC/C=C/C/C=C/C/C=C/CCCCCCC(N)=O | 1.38
CCCCCCCC/C=C/CCCCCCNC(N)=O | < 0.001
CCCCC/C=C\C/C=C\C/C=C\C/C=C\CCCC(=O)NCCO | 1.68
CCCCCCCCCC/C=C\CCCCCC(N)=O | 1.09
CCCCC/C=C/C/C=C/CCCCCCCC(N)=O (stereo in doubt; 21) | 1.04
CCCCCC/C=C/CCCCCCCC(N)=O | 0.79
CCCCC/C=C/C/C=C/C/C=C/C/C=C/CCCC(N)=O | 3.11
CCCCC/C=C/C/C=C/CCCCCCCC(N)=O (stereo in doubt; 22) | 0.54
CC/C=C/C/C=C/C/C=C/CCCCCCCC(N)=O | 1.38
C1CCCCCCNCCCCC1 | 0.74
CCCCCCCC/C=C\CCCCCCCC(N)=O | 1
CCCC/C=C\CCCCCCCCCCCC(N)=O | 0.82
CCCCCCCCCCCCCCCC(N)=O | 0.72
CCCCCCCC/C=C/CCCCCCCCCCCC(N)=O | 0.83

Structure (SMILES) | Relative rate of hydrolysis
CCCCCCCC/C=C\CCCCCCCCCC(N)=O | 1.05
CCCCCC/C=C\CCCCCCCCCCCC(N)=O | 1.03
CCCCCCCC/C=C/CCCCCCCCCCCCCC(N)=O | 0.82
CCCCC/C=C\CCCCCCCCCCC(N)=O | 0.92
CCCC/C=C/CCCCCCCC(N)=O | 0.86
CCCCCCCCCCCCCC/C=C\CCCC(N)=O | 1.16
CCCCCCCCCCC/C=C\CCCCC(N)=O | 0.91
CCCCCCCC/C=C/CCCCCCC(C)C(N)=O (configuration not stated) | 0.07
CCCCCCCC/C=C/CCCCCCOC(N)=O | 0.1
CC/C=C\CCCCCCCCCCCCCC(N)=O | 0.9
CCCCCCCC/C=C/CCCCCCCC(N)=O | 0.52
CCCCCCCCCCC/C=C\CCCCCCC(N)=O | 1.12
CCCCCCCCCCCCCC(N)=O | 0.83
CC/C=C/C/C=C/C/C=C/CCCCCCCCCC(N)=O | 1.4
CC/C=C/C/C=C/C/C=C/C/C=C/C/C=C/C/C=C/CCC(N)=O | 0.82
CCCCC/C=C/C/C=C/CCCCCCCCCC(N)=O | 1.27
